According to ChEMBL document CHEMBL1201862, “PubChem BioAssay data set” (2004):
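The compound was tested at five concentrations on cells cultured in 96-well plates, with a 48-hour exposure period. GI50 marks 50% less growth.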 Calls of active or inactive are those of the source. Rule as the data show it: active = GI50 up to about 1.1 µM and inactive = higher.

Columns and labels:
Assay in all cases: NCI anticancer screen, dose series, 48 h
HCT-15 = system: HCT-15
DMS-114 = system: DMS-114
SF-539 = system: SF-539
HCT-116 = system: HCT-116
DMS-273 = system: DMS-273
SK-MEL-5 = system: SK-MEL-5
A549 = system: A549
UACC-62 = system: UACC-62
NCI-H226 = system: NCI-H226
M19-MEL = system: M19-MEL
LOX IMVI = system: LOX IMVI
HL-60 = system: HL-60
A498 = system: A498
MOLT-4 = system: MOLT-4
XF498 = system: XF498
COLO 205 = system: COLO 205
SF-295 = system: SF-295
K562 = system: K562
NCI-H522 = system: NCI-H522
SK-MEL-2 = system: SK-MEL-2
RXF 393 = system: RXF 393
OVCAR-4 = system: OVCAR-4
SW-620 = system: SW-620
SK-MEL-28 = system: SK-MEL-28
HT-29 = system: HT-29
OVCAR-8 = system: OVCAR-8
CCRF-CEM = system: CCRF-CEM
UO-31 = system: UO-31
MCF7 = system: MCF7
SNB-19 = system: SNB-19
HCC 2998 = system: HCC 2998
Malme-3M = system: Malme-3M
EKVX = system: EKVX
SN12C = system: SN12C
KM-20L2 = system: KM-20L2
HOP-62 = system: HOP-62
UACC-257 = system: UACC-257
U-251 = system: U-251
HOP-92 = system: HOP-92
DLD-1 = system: DLD-1
OVCAR-5 = system: OVCAR-5
SNB-75 = system: SNB-75
SK-OV-3 = system: SK-OV-3
NCI/ADR-RES = system: NCI/ADR-RES
SNB-78 = system: SNB-78
KM12 = system: KM12
SF-268 = system: SF-268
NCI-H23 = system: NCI-H23
HOP-18 = system: HOP-18
RPMI-8226 = system: RPMI-8226
NCI-H460 = system: NCI-H460
OVCAR-3 = system: OVCAR-3
IGROV-1 = system: IGROV-1
CAKI-1 = system: CAKI-1
TK-10 = system: TK-10
786-0 = system: 786-0
ACHN = system: ACHN
M14 = system: M14
LXFL 529 = system: LXFL 529

`O=C1ON(Cc2ccccc2)C(c2ccccc2)N1c1ccccc1` (centres undefined) was tested, and the GI50 (HCT-15) was greater than 100 µM, the GI50 (DMS-114) was > 100 µM (inactive) and the GI50 (SF-539) was > 100 µM (inactive). For the same molecule, the GI50 (HCT-116) was > 100 µM (inactive), the GI50 (DMS-273) was > 100 µM (inactive) and the GI50 (SK-MEL-5) was > 100 µM (inactive). The GI50 (A549) was > 100 µM (inactive), the GI50 (UACC-62) was 98.9 µM (inactive) and the GI50 (NCI-H226) was 99.1 µM (inactive). For the same molecule, the GI50 (M19-MEL) was > 100 µM (inactive), the GI50 (LOX IMVI) was > 100 µM (inactive) and the GI50 (HL-60) was > 70.5 µM (inactive). The GI50 (A498) was > 100 µM (inactive), the GI50 (MOLT-4) was 71.6 µM (inactive) and the GI50 (XF498) was > 100 µM (inactive). The GI50 (COLO 205) was > 100 µM (inactive), the GI50 (SF-295) was > 64 µM (inactive) and the GI50 (K562) was > 95.9 µM (inactive). For the same molecule, the GI50 (NCI-H522) was > 100 µM (inactive), the GI50 (SK-MEL-2) was > 100 µM (inactive) and the GI50 (RXF 393) was > 100 µM (inactive). For the same molecule, the GI50 (OVCAR-4) was > 100 µM (inactive), the GI50 (SW-620) was > 100 µM (inactive) and the GI50 (SK-MEL-28) was > 100 µM (inactive). For the same molecule, the GI50 (HT-29) was > 100 µM (inactive), the GI50 (OVCAR-8) was > 100 µM (inactive) and the GI50 (CCRF-CEM) was > 100 µM (inactive). For the same molecule, the GI50 (UO-31) was > 100 µM (inactive), the GI50 (MCF7) was > 100 µM (inactive) and the GI50 (SNB-19) was > 100 µM (inactive). For the same molecule, the GI50 (HCC 2998) was > 100 µM (inactive), the GI50 (Malme-3M) was > 100 µM (inactive) and the GI50 (EKVX) was > 100 µM (inactive). The GI50 (SN12C) was > 100 µM (inactive), the GI50 (KM-20L2) was > 100 µM (inactive) and the GI50 (HOP-62) was > 100 µM (inactive). For the same molecule, the GI50 (UACC-257) was > 100 µM (inactive), the GI50 (U-251) was > 100 µM (inactive) and the GI50 (HOP-92) was > 100 µM (inactive). The GI50 (DLD-1) was > 100 µM (inactive), the GI50 (OVCAR-5) was > 100 µM (inactive) and the GI50 (SNB-75) was 62.7 µM (inactive). The GI50 (SK-OV-3) was > 100 µM (inactive), the GI50 (NCI/ADR-RES) was > 100 µM (inactive) and the GI50 (SNB-78) was > 100 µM (inactive). The GI50 (KM12) was > 100 µM (inactive), the GI50 (SF-268) was > 100 µM (inactive) and the GI50 (NCI-H23) was > 100 µM (inactive). For the same molecule, the GI50 (HOP-18) was > 100 µM (inactive), the GI50 (RPMI-8226) was > 100 µM (inactive) and the GI50 (NCI-H460) was > 100 µM (inactive). For the same molecule, the GI50 (OVCAR-3) was > 100 µM (inactive) and the GI50 (IGROV-1) was > 100 µM (inactive).
For `NC(=O)NNC(=O)NC12CC3CC(CC(C3)C1)C2`, the GI50 (HCT-15) was greater than 100 µM, the GI50 (DMS-114) was > 100 µM (inactive) and the GI50 (SF-539) was > 100 µM (inactive). The GI50 (HCT-116) was > 100 µM (inactive), the GI50 (DMS-273) was > 100 µM (inactive) and the GI50 (SK-MEL-5) was > 100 µM (inactive). For the same molecule, the GI50 (A549) was > 100 µM (inactive), the GI50 (UACC-62) was > 100 µM (inactive) and the GI50 (CAKI-1) was > 100 µM (inactive). For the same molecule, the GI50 (NCI-H226) was > 100 µM (inactive), the GI50 (M19-MEL) was > 100 µM (inactive) and the GI50 (LOX IMVI) was > 100 µM (inactive). For the same molecule, the GI50 (HL-60) was > 100 µM (inactive), the GI50 (A498) was > 100 µM (inactive) and the GI50 (TK-10) was > 100 µM (inactive). The GI50 (786-0) was > 100 µM (inactive), the GI50 (MOLT-4) was > 100 µM (inactive) and the GI50 (XF498) was > 100 µM (inactive). For the same molecule, the GI50 (COLO 205) was > 100 µM (inactive), the GI50 (SF-295) was > 100 µM (inactive) and the GI50 (K562) was > 100 µM (inactive). For the same molecule, the GI50 (NCI-H522) was > 100 µM (inactive), the GI50 (SK-MEL-2) was > 100 µM (inactive) and the GI50 (RXF 393) was > 100 µM (inactive). The GI50 (OVCAR-4) was > 100 µM (inactive), the GI50 (SW-620) was > 100 µM (inactive) and the GI50 (SK-MEL-28) was > 100 µM (inactive). For the same molecule, the GI50 (HT-29) was > 100 µM (inactive), the GI50 (OVCAR-8) was > 100 µM (inactive) and the GI50 (CCRF-CEM) was > 100 µM (inactive). The GI50 (UO-31) was > 100 µM (inactive), the GI50 (ACHN) was > 100 µM (inactive) and the GI50 (SNB-19) was > 100 µM (inactive). The GI50 (HCC 2998) was > 100 µM (inactive), the GI50 (Malme-3M) was > 100 µM (inactive) and the GI50 (EKVX) was > 100 µM (inactive). The GI50 (SN12C) was > 100 µM (inactive), the GI50 (KM-20L2) was > 100 µM (inactive) and the GI50 (HOP-62) was > 100 µM (inactive). The GI50 (UACC-257) was > 100 µM (inactive), the GI50 (U-251) was > 100 µM (inactive) and the GI50 (HOP-92) was > 100 µM (inactive). For the same molecule, the GI50 (DLD-1) was > 100 µM (inactive), the GI50 (OVCAR-5) was > 100 µM (inactive) and the GI50 (SNB-75) was > 100 µM (inactive). For the same molecule, the GI50 (SK-OV-3) was > 100 µM (inactive), the GI50 (SNB-78) was > 100 µM (inactive) and the GI50 (KM12) was > 100 µM (inactive). For the same molecule, the GI50 (SF-268) was > 100 µM (inactive), the GI50 (M14) was > 100 µM (inactive) and the GI50 (NCI-H23) was > 100 µM (inactive). For the same molecule, the GI50 (HOP-18) was > 100 µM (inactive), the GI50 (LXFL 529) was > 100 µM (inactive) and the GI50 (NCI-H460) was > 100 µM (inactive). The GI50 (OVCAR-3) was > 100 µM (inactive) and the GI50 (IGROV-1) was > 100 µM (inactive).
